{"source": "paper PMC12737022", "about": "“Evaluations of Sex Differences in Dosimetry in Rats Following Perfluorohexanesulfonamide (PFHxSA) Oral Exposure” (Toxics, 2025)", "origin": "cited, not measured here", "system": "rats", "conditions": "cited from earlier work"}
{"smiles": "NS(=O)(=O)C(F)(F)C(F)(F)C(F)(F)C(F)(F)C(F)(F)C(F)(F)F", "note": "[PFHxSA, Perfluorohexanesulfonamide]", "values": [{"measurement": "Doses at which transcriptional pathway changes are observed in multiple tissues", "value": "less than 1 mg/kg/day"}, {"measurement": "Benchmark dose for relative liver weight changes", "setting": "rats, ref Auerbach et al. [40]", "value": 16.25, "unit": "mg/kg/day"}, {"measurement": "Exposures at which mortality was observed in a 5-day study", "setting": "ref Auerbach et al. [40]", "value": "above 100 mg/kg/d"}]}
